# Results: PubChem BioAssay (NCI)
#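 Method: 48-hour compound exposure of cells in 96-well plates, five concentrations, linear interpolation of endpoints. The concentration for full growth arrest is given as TGI.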
# Key:
# Test in all cases: NCI anticancer screen, dose series, 48 h
# [1] = test system: OVCAR-8 ovarian
# [2] = test system: M14 melanoma
# [3] = test system: RPMI-8226 leukemia
# [4] = test system: NCI/ADR-RES ovarian
# [5] = test system: NCI-H460 lung
# [6] = test system: HCT-116 colon
# [7] = test system: NCI-H226 lung
# [8] = test system: OVCAR-3 ovarian
# [9] = test system: U251 CNS
# [10] = test system: DU-145 prostate
Structure (SMILES),TGI [1] [µM],TGI [2] [µM],TGI [3] [µM],TGI [4] [µM],TGI [5] [µM],TGI [6] [µM],TGI [7] [µM],TGI [8] [µM],TGI [9] [µM],TGI [10] [µM]
c1ccc(/C(=N/Nc2ccccn2)c2ncccn2)cc1,3.43,6.93,> 62.9,4.67,> 57.8,> 100,0.956,> 44.3,> 51.6,> 100
N#Cc1cc2c(cc1Cl)Sc1nccn1S2(=O)=O,8.9,4.02,20.8,3.9,32.2,4.03,18,2.13,3.21,6.18
COc1cc(I)c2c3c1OC1C34CCN(C)C(C2)C4=CC(I)C1(OC)OC (stereo not given),53,> 100,49.7,68,38.7,60.6,70.5,59,33.9,47.5
C=c1c(OC)c(OC)c(O)c2c1=c1cc([N+](=O)[O-])cc(OC)c1=N2,> 100,> 100,> 100,> 100,> 100,> 100,> 100,> 100,> 100,> 100
Nc1c(C(=O)c2ccc(Cl)cc2)[nH]c(NCc2ccccc2)c1C(=S)Nc1ccccc1,3.37,3.54,4.34,24.2,3.49,3.31,27.2,20.2,3.13,13.1
CCOC(=O)/C(C#N)=N\Nc1ccc(-n2c(C)nc3ccccc3c2=O)cc1,> 100,> 100,> 100,86.8,> 100,> 100,> 100,82.4,> 100,> 100
Brc1cccc(N=NN2CCCC2)c1,> 100,> 100,58.8,> 100,> 100,> 100,> 100,> 100,> 100,> 100
Cn1c2ccccc2n2c(=O)c3cc([N+](=O)[O-])ccc3c(C#N)c12,> 100,> 100,> 100,> 100,> 100,> 100,> 100,> 100,> 100,> 100
C=C1C(=O)O[C@@]23C1CC[C@@H](C)C2CC[C@@]1(C)OC31 (stereo not given in full),56.5,12.9,16.8,48.4,35.2,21.3,47.9,13.4,19.3,35.5
COc1c(C)c2nc3ccccc3[nH]c2c2c(=O)ccnc12,> 100,> 100,> 100,> 100,> 100,> 100,> 100,> 100,> 100,> 100
Cc1nn(-c2cc(Cl)ccc2[N+](=O)[O-])c(C)c1Cl,> 100,> 100,> 100,> 100,> 100,> 100,> 100,> 100,> 100,> 100
COCC1OC(N2C(=O)NC(=O)[C@@H]3C=C4CCCCC4=C[C@@H]32)C(OC)C1OC (stereo not given in full),> 100,> 100,> 100,> 100,> 100,> 100,> 100,> 100,> 100,> 100
OC1(c2ccc(Cl)cc2)c2ccc3ccccc3c2C2=N[C@H]3CCCC[C@@H]3N21 (stereo not given in full),3.45,23,31,5.99,> 100,20.5,> 100,21.9,27.9,37.2
COC(=O)c1ccc(C=Nc2ccc(S(N)(=O)=O)cc2)cc1,> 100,> 100,86.2,> 100,> 100,> 100,> 100,> 100,> 100,> 100
CC1(CNCc2ccccc2)CC(CCc2ccccc2)N(C(=O)c2ccc([N+](=O)[O-])cc2)C1Cc1ccc(O)cc1 (stereo not given),32,28,> 100,36,30.8,23.1,24.1,24.6,26.2,28.5
NC(N)=NS(=O)(=O)c1ccc(NC(=O)c2ccc3nc4ccccc4c(Nc4ccc(S(=O)(=O)N=C(N)N)cc4)c3c2)cc1,> 100,> 100,> 100,> 100,> 100,> 100,> 100,> 100,> 100,> 100
CC1(C)C=C(S(=O)(=O)c2ccccc2)Oc2ccccc2O1,> 100,> 100,> 100,> 100,> 100,> 100,> 100,> 100,> 100,> 100
